In patent US9822373B2, “Mutant cells for protein secretion and lignocellulose degradation” (The Regents of the University of California, priority 2011, dated 2017):

Legend:
[1] = system: cellulase genes (cbh-1, gh5-1, gh6-2); experiment: Quantitative RT-PCR, cellulase gene expression stated for the genes together; assay type: cell-based, Neurospora crassa; details: for induction of cellulase gene expression: 4 hour induction with 1 mM; for induction of lignocellulolytic genes: wild-type N. crassa (WT) grown on the substance as sole carbon source
Experimental: Conidia from strains were inoculated at an OD595 equal to 0.05 in 50 ml Vogel's salts (45) with 2% w/v sucrose in a 250 ml Erlenmeyer flask and grown under constant light at 200 rpm for 16 hours. Biomass was then spun at 4200 rpm for 10 minutes and washed in Vogel's salts twice to remove any excess sucrose. […] Cultures were induced for 4 hrs under constant light at 200 rpm. The culture biomass was then harvested by filtration over a Whatman glass microfiber filter (GF/F) on a Buchner funnel and washed with 50 ml Vogel's salts. The biomass was flash frozen in liquid nitrogen and stored at −80° C. Three independent biological duplicates (flasks) were evaluated for each time point.
Total RNA from frozen samples was isolated using Zirconia/Silica beads (0.5 mm diameter; Biospec) and a Mini-Beadbeater-96 (Biospec) with 1 mL TRIzol reagent (Invitrogen) according to the manufacturer's instructions. The total RNA was further purified by digestion with TURBO DNA-free (Ambion) and an RNeasy kit (Qiagen). RNA concentration and integrity was checked by Nanodrop and agarose gel electrophoresis.
Quantitative RT-PCR was performed using the EXPRESS One-Step SYBR GreenER Kit (Invitrogen) and the StepOnePlus Real-Time PCR System (Applied Biosystems). Reactions were performed in triplicate with a total reaction volume of 10 μl including 300 nM each forward and reverse primers and 75 ng template RNA. Data Analysis was performed by the StepOne Software (Applied Biosystems) using the Relative Quantitation/Comparative CT (ΔΔCT) setting. Data was normalized to the endogenous control actin with expression on sucrose as the reference sample.

Neurospora crassa [2] = experiment: Secreted protein concentration in shake flask culture supernatant; assay type: cell-based; details: for secreted protein concentration: 48 hours
Experimental: (§1) Strains were inoculated at an OD595 equal to 0.05 in 100 ml Vogel's salts with 1% (wt/vol) sucrose in a 250 ml Erlenmeyer flask and grown under constant light at 200 rpm for 24 hours. Cultures were then induced with 2% sucrose, 2% cellobiose, 1% sucrose/1% cellobiose, or 1% sucrose/1% Avicel®. Cultures continued to grow under constant light at 200 rpm for 5 days with supernatant collected at 1, 2, 3, 4 and 5 day. The collected supernatant was filtered through a 0.2 μm PES filter to remove biomass before being stored at −20° C. until all samples were collected. To visualize the secreted proteins, 15 μl of unconcentrated supernatant was run on a Criterion 10% Tris-HCL polyacrylamide gel and stained with Thermo Scientific GelCode Blue Stain Reagent.

[3] = system: Exoglucanase (Cellobiohydrolase I); experiment: MuLac (4-Methylumbelliferyl β-D-cellobioside) exoglucanase activity of culture supernatant; assay type: cell-based, Neurospora crassa
Experimental: as §1
Exoglucanase (Cellobiohydrolase I) activity was measured using a 4-Methylumbelliferyl β-D-cellobioside (MuLac) assay. This assay mainly measures the activity of CBH-1 and activity is expressed as the change in fluorescence over time resulting in the slope of a best-fit line as an indication of enzyme activity. Prior to performing this assay, any excess sugars in the culture supernatant were removed by passing the supernatant over a 5,000 Dalton concentrator (sartorius stedim Vivaspin 500). Retained proteins were washed twice with 50 mM sodium acetate pH 5 and diluted to 2 μg/μl to assure that the assay remained in the linear range. […] The assay was performed in a Beckman Coulter Paradigm plate reader set at 40° C. with excitation/emission wavelengths of 360/465 nm with readings every 30 seconds for 10 minutes. The slope of the best-fit line represents the MuLac activity for an individual culture supernatant. The MuLac activity is normalized to the initial dilution required to obtain a 2 μg/μl concentration in order to represent the undiluted activity. The activity of recombinant cellobiohydrolase-1 was used as a standard and data is presented as a percentage of the wild type activity on Avicel® after 4 days.

Neurospora crassa [4] = experiment: Avicel hydrolysis assay with shake flask culture supernatants; assay type: cell-based
Experimental: Cultures were grown in 1% sucrose for 24 hours followed by the addition of 2% sucrose or 0.2% cellobiose. Supernatant was harvested after 24 (WT, Δ3βG and Δ3βGΔcre) or 72 hours (Δ3βG). The WT Avicel® culture was grown for 5 days on 2% Avicel®, Δ3βG was grown in 1% sucrose for 24 hours followed by 48 hours in 1% Avicel® and Δ3βGΔcre was grown in 1% sucrose for 24 hours followed by 24 hours in 1% Avicel®.
Total Avicelase activity was conducted in 250 mL media bottles incubated at 50° C. on a orbital shaker at 200 rpm. Each bottle contained 1% cellulose (Avicel®) and 50 mM (pH 5.0) sodium acetate in a working volume of 50 mL. Tetracycline (10 μg/mL) was added to prevent microbial contamination. Bioreactor culture broth samples were buffer exchanged using a 10 kDa MWCO centrifugal filter to remove any soluble sugars prior to initiating hydrolysis experiments. After pre-incubating the hydrolysis mixture to 50° C., enzyme was added (1 mL filtered culture broth). Samples were taken every 4 hours for the first 12 hours and then every 12 hours thereafter for a total of 48 hours. Hydrolysis experiments were performed in triplicate.
Sucrose, fructose, glucose and cellobiose were measured on a DIONEX ICS-3000 HPLC (Dionex Corp., Sunnyvale, Calif.) using a CarboPac PA20 Analytical Column (3×150 mm) and a CarboPac PA20 guard column (3×30 mm) at 30° C. Following injection of 25 μl of diluted samples, elution was performed with 100 mM KOH (isocratic) at 0.4 ml/min. Sugars were detected using PAD, Four-Potential Carbohydrate Waveform and Peaks were analyzed using the Chromeleon software package.

## OC[C@H]1O[C@@H](O[C@H]2[C@H](O)[C@@H](O)C(O)O[C@@H]2CO)[C@H](O)[C@@H](O)[C@H]1O (some centres unmarked) [lactose]
[1]; WT
  induction of cellulase gene expression: did not significantly induce
[1]; Δ3βG mutant
  induction of cellulase gene expression: did not significantly induce

## OC[C@H]1O[C@@H](O[C@H]2C(O)O[C@H](CO)[C@@H](O)[C@@H]2O)[C@H](O)[C@@H](O)[C@@H]1O (some centres unmarked) [sophorose]
[1]; WT
  induction of cellulase gene expression: did not significantly induce
[1]; Δ3βG mutant
  induction of cellulase gene expression: did not significantly induce

## OC[C@H]1O[C@@H](O[C@H]2[C@H](O)[C@@H](O)[C@H](O[C@H]3[C@H](O)[C@@H](O)[C@H](O[C@H]4[C@H](O)[C@@H](O)C(O)O[C@@H]4CO)O[C@@H]3CO)O[C@@H]2CO)[C@H](O)[C@@H](O)[C@@H]1O (some centres unmarked) [cellotetraose]
[1]
  induction of lignocellulolytic genes: not induced

## OC[C@H]1O[C@@H](O[C@H]2[C@H](O)[C@@H](O)[C@H](O[C@H]3[C@H](O)[C@@H](O)C(O)O[C@@H]3CO)O[C@@H]2CO)[C@H](O)[C@@H](O)[C@@H]1O (some centres unmarked) [cellotriose]
[1]
  induction of lignocellulolytic genes: not induced

## OC[C@H]1O[C@@](CO)(O[C@H]2O[C@H](CO)[C@@H](O)[C@H](O)[C@H]2O)[C@@H](O)[C@@H]1O [sucrose]
[1]
  induction of lignocellulolytic genes: not induced
Neurospora crassa [2]; WT
  secreted protein concentration: 270 µg/mL
Neurospora crassa [2]; triple β-glucosidase deletion, after 2 days
  secreted protein: 180 µg/mL
Neurospora crassa [2]; Δcre-1
  secreted protein concentration: 481 µg/mL
[3]; triple β-glucosidase deletion, two days
  MuLac activity: no activity towards MuLac
[3]; Δcre-1, on sucrose
  activity of secreted proteins towards MuLac: do not exhibit any activity towards MuLac
Neurospora crassa [4]; WT cultures grown on or induced with the substance
  hydrolysis of crystalline cellulose by culture supernatant: unable to produce glucose or cellobiose from crystalline cellulose
Neurospora crassa [4]; Δ3βG cultures grown on or induced with the substance
  hydrolysis of crystalline cellulose by culture supernatant: unable to produce glucose or cellobiose from crystalline cellulose
Neurospora crassa [4]; Δ3βGΔcre cultures grown on or induced with the substance
  hydrolysis of crystalline cellulose by culture supernatant: unable to produce glucose or cellobiose from crystalline cellulose

## O=C[C@H](O)[C@@H](O)[C@@H](O)[C@H](O)CO [D-(+)-galactose]
[1]; WT
  induction of cellulase gene expression: did not significantly induce
[1]; Δ3βG mutant
  induction of cellulase gene expression: did not significantly induce
